In ChEMBL document CHEMBL3585318, “Effect of water solvation on the lipophilicity of isomeric pyrimidine-carboxamides” (Bioorg Med Chem, 2015) one finds logD, logP and pKa data, which are given here for seven compounds.

Structures are written as SMILES.

What all share (format): physicochemical
Data set [1] is described as follows: Lipophilicity, log D of the compound at pH 7.4 by UV/Vis spectroscopy based shake-flask method. The settings on record: buffer.
Data set [2] is described as follows: Partition coefficient of buffer-octanol system, logP of the compound by shake-flask method.
Data set [3] is described as follows: Dissociation constant, pKa of the compound.

In data set [1], `CCNC(=O)c1cc(OC)nc(N(C)C)n1` displayed a logD of 2.6. For the same compound, the logP in data set [2] is 2.5. Besides, in data set [3], the pKa was 2.4.
Compound `CCNC(=O)c1cc(N(C)C)nc(OC)n1` had a logD in data set [1] of 1.6. Moreover, the logP in data set [2] came to 1.7. In addition, the pKa in data set [3] stood at 3.8.
On the same counts, the results for `CCNC(=O)c1nc(OC)cc(N(C)C)n1` are 1, 1.1 and 2.9.
In data set [1], `O=C1CCCc2cccnc21` came in with a logD of 0.2. The logP in data set [2] stood at 0.4.
In data set [1], `O=C1CCCc2ccncc21` showed a logD of 0.8. The logP in data set [2] worked out at 0.9.
On the same counts, the results for `O=C1CCCc2cnccc21` are 1 and 1.5.
For `O=C1CCCc2ncccc21` the same measures were 0.9 and 1.2.
